Results as given in patent publication EP1101492A1, “NOVEL REMEDIES FOR ALLERGIC DISEASES” (FUJI YAKUHIN KOGYO KABUSHIKI KAISHA, priority 1998, dated 2000).

Legend:
[1] = system: mouse experimental atopic dermatitis models; assay: Auricle edema in experimental atopic dermatitis model (anti-DNP IgE sensitization, DNFB elicitation); assay type: in vivo, Balb/c mice; details: 60 µg/ear/dose in ethanol painted on auricles twice a day, 1 hour pre-elicitation, 6 hours, 1 to 6 days post-elicitation; for % Inhibition vLPR: 7 or 8 days post-elicitation; for % Inhibition IPR: 1 hour post-elicitation; for % Inhibition LPR: 1 day post-elicitation
Description: Intravenous injection of an anti-2,4-dinitrophenol (DNP) antibody (anti-DNP Ab, monoclonal IgE Ab; its antibody titer was 1 : 512 to 1 : 1024 by a rat heterologous passive cutaneous anaphylaxis reaction using a Wister rat) into a tail vein of female Balb/c mice (7-week old, body weight: 17 to 20 g, purchased from JAPAN SLC, Inc.) at a dose of […] per animal raised passive sensitization. Twenty four hours post-sensitization, 0.1% 2,4-dinitrofluorobenzene (DNFB; Nacalai Tesque, Inc.) in ethanol was painted onto both sides of a pair of mouse auricles at a dose of 10µL per each side for elicitation.
Fresh unsensitized mice were painted with 0.1% DNFB in ethanol onto their ear in the same manner as aforementioned and served as a control group. Not only immediately prior to elicitation but also 1 hour, 5 hours, daily between Days 1 and 14, and on Day 16 post-elicitation, ear thickness was measured using a dial thickness gauge (Peacock Co.). Each degree of auricle edemas was calculated: Auricular Edema (µm)=(Ear Thickness Post-Elicitation, µm) - (Ear Thickness immediately prior to Elicitation, µm) [formula]
Balb/c mice were passively sensitized with anti-DNP IgE Ab in the same manner as in Example 1. Twenty four hours later, 0.1% DNFB in ethanol was painted onto both sides of a pair of mouse auricles at a dose of 10 µL per each side for elicitation.
Immediately prior to elicitation, 1 hour and on Day 1 post-elicitation, auricle thickness was measured in the same manner as in Example 1. Each therapeutic efficacy is recorded as a percent inhibition wherein the "auricle edema (untreated group)" is used as a control. Auricle Edema Inhibition (%) = [ 1 -(Auricle Edema (Treated Group))/(Auricle Edema (Untreated Group))] × 100 (%) [formula]
Immediately prior to elicitation, and on Day 7 post-elicitation, auricle thickness was similarly measured. Each therapeutic efficacy is recorded as a percent inhibition wherein the auricle edema in the untreated group is used as a control.
Immediately prior to elicitation, and on Day 7 post-elicitation, auricle thickness was similarly measured. Each therapeutic efficacy is recorded as a percent inhibition wherein the auricle edema (untreated group) is used as a control.
Immediately prior to elicitation, at 1 and 4 hours and on Days 1, 3 and 7 post-elicitation, auricle thickness was similarly measured. From each auricle edema (µm) based on the auricle thickness immediately prior to elicitation, especially a prophylactically therapeutic efficacy of the test compound was evaluated.
Immediately prior to elicitation, at 0.5, 1 and 4 hours and on Days 1, 3 and 7 post-elicitation, auricle thickness was similarly measured. Each amount of auricle edemas was calculated (average± standard deviation).

[2] = system: mouse experimental atopic dermatitis models; assay: Scratching behavior in experimental atopic dermatitis model; assay type: in vivo, mice; details: for % Inhibition (scratching behavior) / Scratching Behavior (Times) (Average± Deviation): 0.1% solution in ethanol, 10 µL per side painted 1 hour pre-elicitation; for % Inhibition (scratching behavior): counts for 15 to 30 and 30 to 45 min post-elicitation, vs solvent control; for Scratching Behavior (Times) (Average± Deviation): counts for the 15 to 30 min and 30 to 45 min post-elicitation durations, 3 animals per group, solvent control 209.0 ± 70.4
allergic peritonitis = assay: Allergic peritonitis induced with ovalbumin (peritoneal exudate cells); assay type: in vivo, Balb/c mice; details: ovalbumin
Description: Twenty four hours after induction, mice were sacrificed under ether […] and each penitoneal cavity was lavaged twice or thrice with a washout medium (total volume: 5 mL, physiological saline containing 10 units/mL of heparin). Peritoneal exudate cells (PEC) were harvested in a siliconized glass tube. The retrieved washout medium was measured for its yield (mL) and the number of exudate cells therein by using Turk solution and counting on a haemocytometer and a total number of PEC was calculated. An aliquot thereof (an extent of approximately 20,000 cells of PEC) was taken. Specimens for staining were prepared using Cytospin 3 (CHANDON), and PEC was stained with Dif-Quick solution (International Reagents Corporation). After staining, PEC was subjected to fractional counts under a microscope with classification into eosinophils, neutrophils, lymphocytes/macrophages and basophils based on their form and stain nature (more than 500 PEC per specimen were randomly counted). […] After counting, intraperitoneal exudation inhibition rates were calculated by the following formula and expressed as the therapeutic efficacies: Inhibition Rate (%) =[1 -((PEC in Sensitized/Drug-Treated Mouse) - (PEC in Unsensitized/Saline-Treated Mouse))/((PEC in Sensitized/Saline-Treated Mouse) - (PEC in Unsensitized/Saline-Treated Mouse))]× 100 [formula]
A physiological saline solution containing ovalbumin (0.25 mg/mL) and an aluminum hydroxide gel (4 mg/mL) was administered subcutaneously to male Balb/c mice (7 weeks old, 20 to 23 g, purchased from JAPAN SLC, Inc.) twice at one week interval at a single dose of 0.4 mL for sensitization. On Day 14 after the initial sensitization, an antigen solution for induction (2.5 µg/mL) was administered intraperitoneally to each animal at a dose of 0.4 mL to raise allergic peritonitis. Compound No. 130 (30 mg/kg) or a negative control solvent, physiological saline (10 mL/kg), was administered intraperitoneally to each animal 5 minutes prior to induction, 3 and 6 hours post-induction.
Similarly to Example 24, the peritoneal cavities were lavaged to retrieve PEC. The drained liquids were measured for their yield and total PEC number therein. In the same manner as in Example 24, PEC was stained and subjected to fractional counting under a microscope based on their form. […] Similarly to Example 24, basophils and neutrophils were excluded from subjects to be examined. In the same manner as in Example 24, intraperitoneal exudation inhibition rates were calculated and expressed as the therapeutic efficacies.
In the same manner as in Example 25, male Balb/c mice were sensitized with ovalbumin and an aluminum hydroxide gel, and, on Day 14 after the initial sensitization, treated with an antigen solution to raise allergic peritonitis. Compound No. […]
Similarly to Example 24, the peritoneal cavities were lavaged to retrieve PEC 24 hours after induction. The drained liquids were measured for their yield and total PEC number therein.

[3] = system: guinea pig experimental bronchial asthma models; assay: Experimental bronchial asthma model (ovalbumin inhalation): airway resistance and asthmatic death;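 also: female Std:Hartley guinea pigs sensitized by inhaling nebulized ovalbumin once daily for 8 consecutive days, 8 to 11 animals per group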; details: test compounds 15 mg/kg s.c. (Compound No. 114: 30 mg/kg), prednisolone 10 mg/kg orally
Description: Guinea pigs (female, Std:Hartley, 3 weeks old, 200 to 250 g) were individually housed in a plastic chamber (width, 200 mm; depth, 300 mm; height, 167 mm). Aqueous ovalbumin (10 mg/mL) was administered to the guinea pigs once a day for sensitization by 10 min. inhalation with a nebulizer (5B, Nippon Shoji K.K.: flow rate, 6 L/min.) at a dose of 10 mg/mL during 8 cosecutive days. On Day 7 after the final sensitization, the guinea pigs were housed in a plastic chamber and inhaled using a nebulizer with a solution of ovalbumin (10 mg/mL) in physiological saline for 1 min. for elicitation (Matsumoto, T., et al., The Journal of Pharmacology and Experimental Therapeutics, 269: 1236-1244, 1994). The number of animals employed in the experiment was set to the extent there are at least 6 as individuals escaping asthmatic death. A solution of a test compound (Compound No. 130, 15 mg/kg) in water for injection was administered subcutaneously twice, i.e., 24 hours and 2 hours prior to elicitation. Similarly, the solvent alone was also administered to a negative control group. A suspension of prednisolone (10 mg/kg) in 0.5% aqueous methyl cellulose was administered orally twice, i.e., 24 hours and 2 hours prior to elicitation. Similarly, the solvent alone was also administered to another control group.
The evaluation for efficacies was conducted in terms of airway resistance. For this purpose, an apparatus dedicated to the measurement of airway resistance (K.K. Medical Agent) was employed. Measurement includes setting a guinea pig in a test chamber under a not-anesthetized condition, applying sinusoidal pressure waves of 30 Hz components to a part below the neck of the animal from the back side of the chamber, measuring respiratory waves of 30 Hz components leaking through the mouth (volume of 30 Hz air flow passing through the respiratory tract) in front of the neck, and calculating airway resistance mechanically. Measurement was carried out immediately prior to the first drug treatment (24 hours before elicitation), just prior to elicitation, 10 minutes, 1, 2, 4, 6, and 8 hours post-elicitation.
It was visually observed by a person carrying out said test in terms, of the appearance of cyanosis or suffocative death (asthmatic death) due to respiratory obstruction.
Guinea pigs were sensitized with ovalbumin and asthma was induced on Day 7 after final sensitization in the same manner as in Example 20. The number of animals employed in the experiment was set to the extent there are at least 6 as individuals escaping asthmatic death (8 to 11 animals/group). In the same manner as in Example 20, the animals were measured for airway resistance mechanically and each percent change (%) in airway resistance was calculated (each value just prior to elicitation was set as 100%). Each percent amelioration in airway resistance was calculated from the percent changes in airway resistance according to the following formula: Amelioration in Airway Resistance (%) = 1 -[((Percent Change in Airway Resistance after Drug-Administration) - (Value just prior to Challenge (100)))/((Percent Change in Airway Resistance after Solvent-Administration) - (Value just prior to Challenge (100)))]× 100 [formula]

[4] = 30 mg/kg s.c., lavage 24 hours post-induction
[5] = 24 and 2 hours prior to elicitation, vs solvent control
[6] = 30 mg/kg s.c. 1 hour prior to induction and 3 hours post-induction, lavage 6 hours post-induction

| SMILES | % Inhibition vLPR [1] | % Inhibition IPR [1] | % Inhibition LPR [1] | % Inhibition (scratching behavior) [2] | Scratching Behavior (Times) (Average± Deviation) [2] | Leukocyte exudate inhibition rate (%) (Macrophages)/(Lymphocytes) (allergic peritonitis; [4]) | Leukocyte exudate inhibition rate (%) Eosinophils (allergic peritonitis; [4]) | Leukocyte exudate inhibition rate (%) Total PEC Number (allergic peritonitis; [4]) | % Survival ([3]; asthmatic death within several minutes after elicitation, water for injection 54.5, 0.5% methyl cellulose 66.7) | % Amelioration in Airway Resistance, 1 Hour after Elicitation [3, 5] | % Amelioration in Airway Resistance, 6 Hours after Elicitation [3, 5] | % Amelioration in Airway Resistance, Immediately after Elicitation [3, 5] | inhibitory efficacy on scratching in the 20 to 40 min post-elicitation duration ([2]; 0.3% Compound No. 125 vs 0.1% tacrolimus painted on auricles) | efficacy on mouse scratching behavior (FIG. 9) ([2]; 0.3% ethanolic solution, 10 µL per side painted on auricles 5 minutes pre-elicitation, observed 2 hours) | Leukocyte exudate inhibition rate (%) Eosinophils (allergic peritonitis; [6]) | Leukocyte exudate inhibition rate (%) Neutrophils (allergic peritonitis; [6]) | Leukocyte exudate inhibition rate (%) Total PEC Number (allergic peritonitis; [6]) |
| --- | --- | --- | --- | --- | --- | --- | --- | --- | --- | --- | --- | --- | --- | --- | --- | --- | --- |
| CC(C)C[C@@H](C(=O)N[C@@H](Cc1ccc(CN)cc1)C(=O)O)C(CCCc1ccccc1)C(=O)NO.Cl (mixture of isomers) [Compound No. 114, N^a-[4-(N-Hydroxyamino)-2(R)-isobutyl-3(RS)-(3-phenylpropyl)succinyl]-L-4'-aminomethylphenylalanine · 1 hydrochloride] | 52% | 71% | 62% | 30.3% | 345.7 ± 47.1 Times | 29.0% | 37.5% | 33.4% | 70.0% | 39.4% | 69.4% | 54.0% |  |  |  |  |  |
| CNC(=O)[C@H](Cc1ccc(N=C(N)N)cc1)NC(=O)C(CC(C)C)[C@H](CCCc1ccccc1)C(=O)NO.Cl (single isomer, unassigned) [Compound No. 125, N -[4-(N-Hydroxyamino)-2(R or S)-isobutyl-3(S)-(3-phenyltrimethylene)succinyl]-L-4'-guanidophenylalanine-N-methylamide 1 hydrochloride] | 31% | 56% | 58% | 40.7% | 124.0 ± 43.6 Times | 55.1% | 38.9% | 49.6% |  |  |  |  | higher than that of tacrolimus | apparently inhibits mouse scratching behavior | 38.4% | 41.4% | 40.9% |
| CNC(=O)[C@H](CCCCN)NC(=O)[C@H](CC(C)C)C(CCCc1ccc(C(=O)OC)cc1)C(=O)NO.Cl (single isomer, unassigned) [Compound No. 129, N-[4-(N-Hydroxyamino)-2(R)-isobutyl-3(R or S)-[3-(p-methoxycarbonylphenyl)propyl)succinyl]-L-lysine N-methylamide 1 hydrochloride] | 35% | 28% | 53% | 31.1% | 144.0 ± 48.8 Times | 37.7% | 30.2% | 35.1% |  |  |  |  |  |  | 39.9% | 125.7% | 109.1% |
| CNC(=O)[C@H](Cc1ccc(N=C(N)N)cc1)NC(=O)[C@@H](CC(=O)NO)CC(C)C.O=S(=O)(O)O [Compound No. 122, N-[4-(N-Hydroxyamino)-2(R)-isobutylsuccinyl]-L-4'-guanidophenylalanine-N-methylamide 1 sulfate] | 35% | 31% | 22% | 54.1% | 96.0 ± 32.6 Times |  |  |  |  |  |  |  |  |  |  | 27.1% | 38.6% |
| COC(=O)[C@H](Cc1ccc(CN)cc1)NC(=O)[C@H](CC(C)C)[C@H](CCCc1ccccc1)C(=O)NO.Cl [Compound No. 132, N-[4-(N-Hydroxyamino)-2(R)-isobutyl-3(S)-(3-phenylpropyl)succinyl]-L-4'-aminomethylphenylalanine methyl ester 1 hydrochloride] | 46% | 20% | 39% | 49.9% | 104.7 ± 30.6 Times | 34.0% | 24.3% | 31.6% |  |  |  |  |  |  |  |  |  |
